Tests used:
Hd 1NES1NiR = biological target: T1, Hd 1NES1NiR (Hyphomicrobium denitrificans, UniProt N0B9M5); test: X-ray crystal structure (nitrite-soaked crystal); assay type: binding; conditions: 100 mM NaNO2 soak, pH 5.3; catalytic T2Cu site, side-on, two of three monomers; third monomer holds NO
T1 construct: gene HYPDE_25578; N-terminal cupredoxin-tethered three-domain CuNiR; predicted signal peptide removed; 6xHis-tag cut with TEV; E. coli BL21(DE3), pET-26b(+); Cu-loaded; hexamer (dimer of trimers)
T1 sequence (N0B9M5 38-486): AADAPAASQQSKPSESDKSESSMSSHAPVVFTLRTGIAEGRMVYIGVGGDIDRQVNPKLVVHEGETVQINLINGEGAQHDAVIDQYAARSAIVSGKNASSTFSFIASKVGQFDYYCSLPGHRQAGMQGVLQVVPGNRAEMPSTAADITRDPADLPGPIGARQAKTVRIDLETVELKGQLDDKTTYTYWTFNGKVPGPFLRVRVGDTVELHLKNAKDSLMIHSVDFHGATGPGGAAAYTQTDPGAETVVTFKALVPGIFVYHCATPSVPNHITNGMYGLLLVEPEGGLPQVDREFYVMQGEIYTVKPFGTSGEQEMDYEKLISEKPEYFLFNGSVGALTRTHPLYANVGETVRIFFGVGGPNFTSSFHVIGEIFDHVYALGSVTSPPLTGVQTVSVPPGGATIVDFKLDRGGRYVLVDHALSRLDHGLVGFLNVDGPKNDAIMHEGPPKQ

[1] = biological target: N-terminal cupredoxin-tethered three-domain copper-containing nitrite reductase from Hyphomicrobium denitrificans strain 1NES1 (Hyphomicrobium denitrificans strain 1NES1); test: SEC; HiLoad 16/600 Superdex 200 pg, 100 mM Tris-HCl pH 8.0, 500 mM NaCl, 10% (v/v) glycerol, 1.0 ml/min; mass estimated from a calibration curve of marker proteins

Row | stoichiometry N [1] | Compound | X-ray crystal structure (nitrite-soaked crystal) (Hd 1NES1NiR)
1 |  | O=NO [NO2, nitrite] | The NO2 ^− is bound to the T2Cu in a side-on conformation
2 | 6 | N-terminal cupredoxin-tethered three-domain copper-containing nitrite reductase from Hyphomicrobium denitrificans strain 1NES1 (enzyme) | 

From paper PMC7201279, “Structures of substrate- and product-bound forms of a multi-domain copper nitrite reductase shed light on the role of domain tethering in protein complexes” (IUCrJ, 2020)
